What all share (type): cell-based
Test [1] has as its target T1, human androgen receptor (Homo sapiens, UniProt P10275).
T1 sequence (P10275 1-920): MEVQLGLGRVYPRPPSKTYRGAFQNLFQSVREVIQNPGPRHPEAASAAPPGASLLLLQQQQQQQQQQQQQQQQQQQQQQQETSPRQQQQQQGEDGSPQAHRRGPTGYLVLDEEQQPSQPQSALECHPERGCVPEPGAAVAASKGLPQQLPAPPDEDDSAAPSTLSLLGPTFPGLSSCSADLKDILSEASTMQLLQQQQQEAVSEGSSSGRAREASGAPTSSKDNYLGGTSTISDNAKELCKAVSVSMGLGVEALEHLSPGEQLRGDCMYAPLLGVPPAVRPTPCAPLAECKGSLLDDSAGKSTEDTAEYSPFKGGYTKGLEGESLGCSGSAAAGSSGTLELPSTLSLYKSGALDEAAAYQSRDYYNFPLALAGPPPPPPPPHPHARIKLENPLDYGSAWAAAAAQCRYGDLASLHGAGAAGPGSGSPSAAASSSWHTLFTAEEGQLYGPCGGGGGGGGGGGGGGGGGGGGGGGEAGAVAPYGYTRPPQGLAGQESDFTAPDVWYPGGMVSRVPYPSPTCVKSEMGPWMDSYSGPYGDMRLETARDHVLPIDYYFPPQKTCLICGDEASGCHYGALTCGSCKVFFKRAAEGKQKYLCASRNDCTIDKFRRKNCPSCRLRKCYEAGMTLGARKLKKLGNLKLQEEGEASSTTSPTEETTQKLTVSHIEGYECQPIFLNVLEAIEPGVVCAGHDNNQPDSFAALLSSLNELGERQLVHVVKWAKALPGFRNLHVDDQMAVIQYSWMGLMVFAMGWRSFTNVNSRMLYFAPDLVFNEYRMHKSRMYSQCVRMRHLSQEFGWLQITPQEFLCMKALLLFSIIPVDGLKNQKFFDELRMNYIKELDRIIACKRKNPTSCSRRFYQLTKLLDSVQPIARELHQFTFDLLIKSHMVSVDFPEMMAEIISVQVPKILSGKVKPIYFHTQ
As to the kind of experiment: AR transcriptional activity on MMTV-LUC, CV-1 cells, AR alone. As to conditions: FIG. 10. As for the experimental part: (§1) FIGS. 10A-10B are a series of graphs showing CV-1 cells that were transiently transfected with an expression vector for the human androgen receptor (pRShAR) alone, or in combination with phPR-A together with 5 µg/ml of the MMTV-LUC reporter and 5 µg/ml of pCH110 as an internal control. […] The relative luciferase activity is calculated by dividing the normalized luciferase value at a given point by that obtained in the absence of transfected receptor or ligand. […] The data are presented as percent (%) activation, where 100% represents the maximal induction achieved by human androgen receptor at 10^ -8 M DHT. The experimental data represents mean values +/- the average deviation from the mean of quadruplicate estimations;
(§2) Cells were seeded in 12-well, 96-well or 10 cm tissue culture plates. […] 20 μg of DNA/ml of transfection buffer were used in each transfection reaction. In this mix, the concentration of the luciferase plasmids and that of the internal control plasmid pCH110 (Pharmacia, Inc.), which contains the gene for the β-galactosidase enzyme, remained constant ([…] of each plasmid DNA), while the receptor plasmid concentration varied as indicated for each experiment. […]

A further test deals with ER. As to the kind of experiment: ER transcriptional activity on MMTV-ERE-LUC in HepG2 and HS578T cells. As to conditions: data not shown.
Test [2] deals with T1, human androgen receptor. The experiment in a line: AR transcriptional activity on MMTV-LUC, CV-1 cells, AR co-expressed with PR-A. The settings on record: AR plus PR-A, FIG. 10B. The method, then: as §1, §2

The structures appear in SMILES notation.

As to `CC#C[C@]1(O)CC[C@H]2[C@@H]3CCC4=CC(=O)CCC4=C3[C@@H](c3ccc(C(C)=O)cc3)C[C@@]21C` [ZK112993], the “effect on DHT-induced AR activity” value on human androgen receptor [1] is “efficient inhibitor of DHT-activated AR”. Moreover, the anti-estrogenic activity result in the test on ER (HS578T cells) is listed as “both anti-progestins functioned as anti-estrogens”; in the test with ER (HepG2 cells), “neither anti-progestin exhibited any anti-estrogenic activity”. Further, the “effect on DHT-induced AR activity in the presence of PR-A” value at human androgen receptor [2] was “increased by the introduction of PR-A”.

For the origin of these results see patent US5506102A (priority 1993, dated 1996).
